“And” between values parts separate entries of the source, which are not always exact repeats. Equal values may be shown once. Blank lines part the entries; values can stand above or below the compound they belong to.
How the values were obtained:
[1] = Fluorescence recovery after photobleaching (FRAP), diffusion coefficient; format: physicochemical
Experimental: FRAP was performed on a Nikon confocal microscope. […] A bleaching and background region of interest (ROI) was used to selectively photobleach an area of the cubic phase and the fluorescence recovery curve was recorded with time. The excitation/emission wavelengths used were 553/627 nm for the octadecyl rhodamine B chloride. […] […] The open source Matlab code frap_analysis_2p5 was used to determine diffusion coefficients μ from FRAP data.

[2] = measured using NMR in a previous study; cited from earlier work
in vivo = assay: in vivo; parameters: species or system Sprague Dawley rats; conditions: male, Sprague-Dawley, rat, 1 mg/kg
Experimental: (§1) Four male Sprague Dawley rats were used as controls. Each rat was anaesthetised with isoflurane followed by preparation of the saphenous vein. The rats were given 1 mg/kg of meropenem via SC injection, immediately following this they were placed on a heat-mat until they regained consciousness, before being housed in pairs in boxes. Blood collection (150 μl) was taken via the saphenous vein at 0, 30-, 70-, 120-, 180-, 240- and 360-mins post-injection. The blood concentration of the protein in the blood was tested using the relevant ELISA kit for meropenem.
(§2) Eight male Sprague Dawley rats were used. Each rat was anaesthetised with isoflurane followed by preparation of the saphenous vein and the first blood collection (150 μl). An enteric capsule with a thick polymer coating of approximately 160 μm containing 1 mg/kg of meropenem encapsulated in MO lipid cubic phase was then introduced via oral gavage into the rat stomach. Immediately following this they were placed on a heat-mat until they regained consciousness, before being housed in pairs. Blood collection (150 μl) was taken via the saphenous vein at 0, 35-, 50-, 120-, 180-, 240- and 360-mins post-injection.
(§3) All data are analysed on a Clariostar Plate Reader to determine concentration against a standard curve for the relevant drug.
(§4) Concentrations provided in FIGS. 10-13 are the measured concentration of the drug in the blood plasma (determined using specific Elisa kits) and are in units of ng/ml. The initial drug concentration measured at the 0 time point has been set to zero in each case and other data scaled relative to this.

[3] = Vancomycin in blood plasma (ELISA) after SC injection or oral capsule; format: in vivo, Sprague Dawley rats
Experimental: as §1, with “given 15” for “given 1”, “of vancomycin” for “of meropenem”, “for each of the proteins.” for “for meropenem.”
as §2, with “containing 15” for “containing 1”, “of vancomycin” for “of meropenem”
as §3, §4

[4] = tested on: blood glucose of diabetic Sprague Dawley rats; assay: Blood glucose levels in STZ-induced diabetic rats after insulin by SC injection or oral capsule; format: in vivo; conditions: for time over which BG levels continued to decrease: 1 IU SC injection; for Percentage of SC injection (%), efficacy of oral delivery: MO cubic phase
Experimental: 14 Sprague Dawley rats were used in this trial. One week before each phase started, all rats were given isoflurane until unconscious. Each rat was then injected intravenously in the tail with 60 mg/kg of streptozotocin (STZ) in a sodium citrate buffer. All rats were then housed in pairs and blood glucose was monitored 3 times per day over 48 hours. The induction of diabetes was confirmed when the blood glucose level was >14 mmol/L in the morning.
The rats were then housed in pairs in two boxes. Blood collection was taken at 5-, 360-, and 1440-minutes post-injection, and the BG level tested at each time point.
(§5) Four Sprague Dawley rats were used in Phase 1 and four in Phase 2. Each was initially given isoflurane until unconscious. This was followed by preparation of the saphenous vein and the baseline basal BG was tested. […] Blood collection (10 μl) was taken at 15-, 30-, 60-, 120-, and 360-minutes post-injection. BG testing was performed immediately at each time point using an Accu Chek BG monitor and strips.
as §5, with “at” for “at 15-,”, “120-, 360-,” for “120-,”, “465-minutes” for “360-minutes”, “strips. One rat didn't develop diabetes and one rat had kidney problems. In each case, the AWO (Animal Welfare Officer) was consulted and both rats were removed from the trial.” for “strips.”
Four Sprague Dawley rats were used in this part of the trial. Each was initially given isoflurane until unconscious. This was followed by preparation of the saphenous vein and the first blood collection (10 μl) and BG testing. […] Blood collection (10 μl) was taken at 75-, 120-, 180-, 240-, 300- and 360- minutes, and BG testing was performed at each time point using an Accu Chek BG monitor and strips.
(§6) Two Sprague Dawley rats were used in this part of the trial. Each was initially given isoflurane until unconscious. This was followed by preparation of the saphenous vein and the first blood collection (10 μl) and BG testing. […] Immediately following this they were placed on a heat-mat until they regained consciousness, before being housed in pairs in boxes. Blood collection (10 μl) was taken at 105-, 135-, 165-, 210-, 345- and 460- minutes, and BG testing was performed at each time point using an Accu Chek BG monitor and strips.
as §6, with “Four” for “Two”, “45-, 75-, 120-, 160-, 220-, 260-, 300-” for “105-, 135-, 165-, 210-, 345-”, “360-” for “460-”
as §6, with “30-, 60-, 80-, 125-, 180-, 280-, 340-, 400-” for “105-, 135-, 165-, 210-, 345-”

[5] = Human growth hormone in blood plasma (ELISA) after SC injection or oral capsule; format: in vivo, Sprague Dawley rats
Experimental: as §1, with “human growth hormone” for “meropenem”, “human growth hormone.” for “meropenem.”
as §2, with “the human growth hormone” for “meropenem”, “120-,180-,” for “120-, 180-,”, “post-injection” for “post-injection.”
as §3, §4

[6] = oral enteric capsule, MO cubic phase, 15 mg/kg
[7] = 1 IU oral, MO cubic phase in enteric capsule T=3, Phase 1, Rats 2-4
[8] = oral enteric capsule vs SC, 1 mg/kg
[9] = oral enteric capsule, MO cubic phase, 1 mg/kg

Diffusion Coefficient ([1]; in MO QII^D bulk cubic phase (insulin: FITC labelled, 5 mg/ml)): 0.97 ×10^−6 cm^2 s^−1 | Diffusion Coefficient ([1]; in PT QII^D bulk cubic phase (insulin: FITC labelled, 5 mg/ml)): 0.59 ×10^−6 cm^2 s^−1
Compound: CCCCCCCCCCCCCCCCCCOC(=O)c1ccccc1-c1c2ccc(=[N+](CC)CC)cc-2oc2cc(N(CC)CC)ccc12.[Cl-] [Octadecyl rhodamine B chloride, octadecyl rhodamine B chloride]

Compound: CC(C)CCCC(C)CCCC(C)CCCC(C)(O)C(O)CO (centres unmarked) [PT, phytantriol]
lipid self-diffusion coefficient [2]: 0.3 ×10^−6 cm^2 s^−1

bioavailability (in vivo): 58% | maximum drug plasma concentration as % of that following SC injection (in vivo): 55% | maximum drug concentration in blood plasma (in vivo; po): 19 to 23 ng/mL | time by which baseline drug concentrations are reached (in vivo; po): ≤ 180 min | time of maximum plasma concentration (in vivo; po): 50 min | maximum drug concentration in blood plasma (in vivo; sc): 37 to 40 ng/mL | time by which baseline values are reached (in vivo; sc): ≤ 240 min | time of maximum plasma concentration (in vivo; sc): 30 min
Compound: C[C@@H](O)[C@H]1C(=O)N2C(C(=O)O)=C(S[C@@H]3CN[C@H](C(=O)N(C)C)C3)[C@H](C)[C@H]12 [meropenem]

Compound: CN[C@H](CC(C)C)C(=O)N[C@H]1C(=O)N[C@@H](CC(N)=O)C(=O)N[C@H]2C(=O)N[C@H]3C(=O)N[C@H](C(=O)N[C@H](C(=O)O)c4cc(O)cc(O)c4-c4cc3ccc4O)[C@H](O)c3ccc(c(Cl)c3)Oc3cc2cc(c3O[C@@H]2O[C@H](CO)[C@@H](O)[C@H](O)[C@H]2O[C@H]2C[C@](C)(N)[C@H](O)[C@H](C)O2)Oc2ccc(cc2Cl)[C@H]1O [vancomycin]
time by which baseline values are reached ([3]; SC injection 15 mg/kg): ≤ 180 min | time of maximum plasma concentration ([3]; SC injection 15 mg/kg): 30 min | maximum drug concentration in blood plasma ([3]; SC injection 15 mg/kg, four rats): approximately 1500 ng/ml | bioavailability ([3]; male, Sprague-Dawley, rat, plasma, oral enteric capsule vs SC, 15 mg/kg, read-out: overall bioavailability as % of that following SC injection): 73.9% | maximum drug concentration in blood plasma ([3]; oral enteric capsule (approx. 160 μm coating), MO cubic phase, 15 mg/kg, range over rats): 790 to 960 ng/mL | maximum drug plasma concentration as % of that following SC injection ([3]; oral enteric capsule vs SC, 15 mg/kg): 57% | time by which baseline drug concentrations are reached [3, 6]: ≤ 180 min | time of maximum plasma concentration [3, 6]: 50 min

Compound: Actrapid insulin: fast acting insulin (Actrapid, Novo Nordisk), given SC or in MO cubic phase within enteric capsule
time over which BG levels continued to decrease ([4]; Phase 1): approximately 110 mins | time over which BG levels continued to decrease ([4]; Phase 2): approximately 120 mins | lead time: BG levels continued to increase after oral administration ([4]; 1 IU oral, MO cubic phase in enteric capsule T=1, Phase 2, Rats 5-8): approximately 60 mins | overall decrease in BG ([4]; 1 IU oral, MO cubic phase in enteric capsule T=1, Phase 2, individual Rats 5, 6, 7, 8 in this order): 6.2 mmol/L and 8.7 mmol/L and 11.4 mmol/L and 4.6 mmol/L | lead time: BG levels continued to increase after oral administration [4, 7]: 100 to 110 min | time period over which BG levels decreased [4, 7]: 70 to 180 min | overall decrease in BG ([4]; 1 IU oral, MO cubic phase in enteric capsule T=3, Phase 1, individual Rats 2, 3, 4 in this order): 3.6 mmol/L and 3.1 mmol/L and 3.4 mmol/L | time BG levels remained below 14 mmol/L ([4]; 15 IU by SC injection, pre-trial period, diabetic rats): approximately 450 minutes | response of blood glucose to oral administration ([4]; Rat 1, perforated enterically coated capsule shell with lipid cubic phase, 1 IU, Phase 1 (comparative)): not pronounced | Percentage of SC injection (%) ([4]; SC injection, 1 IU (reference)): 100% | Percentage of SC injection (%), efficacy of oral delivery ([4]; oral capsule T = 1 (thinner coating), 1 IU, listed as Fast Acting Insulin): 93.1% | Percentage of SC injection (%), efficacy of oral delivery ([4]; oral capsule T = 1 (thinner coating), 1 IU, listed as fast-acting insulin): 93% | Percentage of SC injection (%), efficacy of oral delivery ([4]; oral capsule T = 3 (thicker coating), 1 IU, listed as Fast Acting Insulin): 56.1% | Percentage of SC injection (%), efficacy of oral delivery ([4]; oral capsule T = 3 (thicker coating), 1 IU, listed as fast-acting insulin): 56%

Compound: human growth hormone: Human Growth Hormone (MyBioSource), given SC or in MO cubic phase within enteric capsule
time at which total amount of protein delivered (AUC) reaches a plateau ([5]; SC injection 1 mg/kg): approximately 180 min | time by which baseline drug concentrations are reached ([5]; SC injection 1 mg/kg): ≤ 300 min | time of maximum plasma concentration ([5]; SC injection 1 mg/kg): 60 min | maximum drug concentration in blood plasma ([5]; SC injection 1 mg/kg, range over four rats): 20 to 32 ng/mL | maximum drug concentration in blood plasma ([5]; oral enteric capsule (approx. 160 μm coating), MO cubic phase, 1 mg/kg, range over rats): 19 to 24 ng/mL | maximum drug plasma concentration as % of that following SC injection [5, 8]: 81% | overall bioavailability as % of that following SC injection [5, 8]: 87.2% | lag period before total protein delivered starts to increase [5, 9]: 30 min | time at which total protein delivered (AUC) reaches a plateau [5, 9]: around 240 mins | time by which baseline drug concentrations are reached [5, 9]: ≤ 240 min | time of maximum plasma concentration [5, 9]: 50 min
